# Source: PubChem BioAssay AID212 (DTP/NCI, 2004)
# “And” between values parts separate entries of the source, which are not always exact repeats. Equal values may be shown once. Inconclusive results are not listed.
# System: BDF1 mice, colon carcinoma 38 sc, T/C %
# Experiment: NCI In Vivo Anticancer Drug Screen. Data for tumor model Colon Carcinoma 38 (subcutaneous) in B6D2F1 (BDF1) mice
# How it was run: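 T/C readout: treated group (T) measurement over vehicle control group (C) measurement. Endpoint is survival or tumor size in mice bearing a transplanted tumor.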
# [1] = endpoint: median tumor weight (est.), dose: 12.5 mg/kg/injection, schedule: Q07DX002 (ip), vehicle: Klucel (hydroxypropylcellulose) (HPC), higher = larger tumour
# [2] = endpoint: median tumor weight (est.), dose: 25.0 mg/kg/injection, schedule: Q07DX002 (ip), vehicle: Klucel (hydroxypropylcellulose) (HPC), higher = larger tumour
smiles,measurement,setting,value
N=c1nc2n(cc1F)[C@@H]1O[C@H](CO)[C@@H](O)[C@@H]1O2,T/C,"endpoint: median tumor weight (est.), dose: 100.0 mg/kg/injection, schedule: Q07DX002 (ip), vehicle: saline, higher = larger tumour",118 % of control
same,T/C,"endpoint: median tumor weight (est.), dose: 100.0 mg/kg/injection, schedule: Q07DX002 (ip), vehicle: suspension in saline, higher = larger tumour",117 % of control
same,T/C,"endpoint: median tumor weight (est.), dose: 200.0 mg/kg/injection, schedule: Q07DX002 (ip), vehicle: saline, higher = larger tumour",193 % of control
same,T/C,"endpoint: median tumor weight (est.), dose: 200.0 mg/kg/injection, schedule: Q07DX002 (ip), vehicle: suspension in saline, higher = larger tumour",93 % of control
same,T/C,"endpoint: median tumor weight (est.), dose: 400.0 mg/kg/injection, schedule: Q07DX002 (ip), vehicle: suspension in saline, higher = larger tumour",99 % of control
same,T/C,"endpoint: median tumor weight (est.), dose: 800.0 mg/kg/injection, schedule: Q07DX002 (ip), vehicle: saline, higher = larger tumour",102 % of control
same,T/C,"endpoint: median tumor weight (est.), dose: 1600.0 mg/kg/injection, schedule: Q07DX002 (ip), vehicle: saline, higher = larger tumour",53 % of control
same,T/C,"endpoint: median tumor weight (est.), dose: 1600.0 mg/kg/injection, schedule: Q07DX002 (ip), vehicle: suspension in saline, higher = larger tumour",40 % of control
CN(C)c1ccc2c(N(C)C)cc(N(C)C)nc2c1,T/C,"endpoint: median tumor weight (est.), dose: 3.12 mg/kg/injection, schedule: Q07DX002 (ip), vehicle: Klucel (hydroxypropylcellulose) (HPC), higher = larger tumour",77 % of control and 101 % of control
same,T/C,[1],114 % of control and 107 % of control
same,T/C,[2],72 % of control
CCCCCCCCCCCCSC1=C(Cl)C(=O)C(OC)=C(OC)C1=O,T/C,"endpoint: median tumor weight (est.), dose: 25.0 mg/kg/injection, schedule: Q07DX002 (ip), vehicle: saline with Tween-80, higher = larger tumour",110 % of control and 97 % of control
same,T/C,"endpoint: median tumor weight (est.), dose: 50.0 mg/kg/injection, schedule: Q07DX002 (ip), vehicle: saline with Tween-80, higher = larger tumour",91 % of control and 96 % of control
same,T/C,"endpoint: median tumor weight (est.), dose: 200.0 mg/kg/injection, schedule: Q07DX002 (ip), vehicle: saline with Tween-80, higher = larger tumour",104 % of control
O=CC(O)C(O)C(O)C(O)C(=O)O.[NH-]C1CCCCC1[NH-].[Pt+2] (configuration not stated),T/C,"endpoint: median tumor weight (est.), dose: 3.12 mg/kg/injection, schedule: Q07DX002 (ip), vehicle: saline, higher = larger tumour",56 % of control
same,T/C,"endpoint: median tumor weight (est.), dose: 6.25 mg/kg/injection, schedule: Q07DX002 (ip), vehicle: saline, higher = larger tumour",23 % of control and 24 % of control and 34 % of control
same,T/C,"endpoint: median tumor weight (est.), dose: 12.5 mg/kg/injection, schedule: Q07DX002 (ip), vehicle: saline, higher = larger tumour",10 % of control and 22 % of control and 34 % of control
same,T/C,"endpoint: median tumor weight (est.), dose: 25.0 mg/kg/injection, schedule: Q07DX002 (ip), vehicle: saline, higher = larger tumour",12 % of control and 15 % of control
CC(=O)OCC(=O)[C@@]12OC(C)(C)O[C@@H]1C[C@H]1[C@@H]3CC(C=O)=C4C=C(OCCCl)CC[C@]4(C)[C@@]3(F)[C@@H](O)C[C@@]12C,T/C,[1],86 % of control
same,T/C,"endpoint: median tumor weight (est.), dose: 12.5 mg/kg/injection, schedule: Q07DX003 (ip), vehicle: Klucel (hydroxypropylcellulose) (HPC), higher = larger tumour",62 % of control and 76 % of control
same,T/C,[2],58 % of control
same,T/C,"endpoint: median tumor weight (est.), dose: 25.0 mg/kg/injection, schedule: Q07DX003 (ip), vehicle: Klucel (hydroxypropylcellulose) (HPC), higher = larger tumour",33 % of control and 57 % of control
same,T/C,"endpoint: median tumor weight (est.), dose: 50.0 mg/kg/injection, schedule: Q07DX002 (ip), vehicle: Klucel (hydroxypropylcellulose) (HPC), higher = larger tumour",86 % of control
same,T/C,"endpoint: median tumor weight (est.), dose: 100.0 mg/kg/injection, schedule: Q07DX002 (ip), vehicle: Klucel (hydroxypropylcellulose) (HPC), higher = larger tumour",94 % of control
same,T/C,"endpoint: median tumor weight (est.), dose: 100.0 mg/kg/injection, schedule: Q07DX003 (ip), vehicle: Klucel (hydroxypropylcellulose) (HPC), higher = larger tumour",57 % of control
same,T/C,"endpoint: median tumor weight (est.), dose: 200.0 mg/kg/injection, schedule: Q07DX002 (ip), vehicle: Klucel (hydroxypropylcellulose) (HPC), higher = larger tumour",54 % of control
same,T/C,"endpoint: median tumor weight (est.), dose: 200.0 mg/kg/injection, schedule: Q07DX003 (ip), vehicle: Klucel (hydroxypropylcellulose) (HPC), higher = larger tumour",48 % of control
CCCCNCCCNCCCNC(=O)c1csc(-c2csc(CCNC(=O)C(NC(=O)C(C)C(O)C(C)NC(=O)C(NC(=O)c3nc(C(CC(N)=O)NCC(N)C(N)=O)nc(N)c3C)C(OC3OC(CO)C(O)C(O)C3OC3OC(CO)C(O)C(OC(N)=O)C3O)c3cnc[nH]3)C(C)O)n2)n1 (configuration not stated),T/C,"endpoint: median tumor weight (est.), dose: 3.75 mg/kg/injection, schedule: Q07DX002 (ip), vehicle: water, higher = larger tumour",81 % of control
same,T/C,"endpoint: median tumor weight (est.), dose: 7.5 mg/kg/injection, schedule: Q07DX002 (ip), vehicle: water, higher = larger tumour",61 % of control
same,T/C,"endpoint: median tumor weight (est.), dose: 15.0 mg/kg/injection, schedule: Q07DX002 (ip), vehicle: water, higher = larger tumour",56 % of control
same,T/C,"endpoint: median tumor weight (est.), dose: 30.0 mg/kg/injection, schedule: Q07DX002 (ip), vehicle: water, higher = larger tumour",48 % of control
N[C@H](C(=O)O)[C@@H]1CC(Cl)=NO1,T/C,"endpoint: median survival time, dose: 25.9 mg/kg/injection, schedule: Q04DX002 (ip), vehicle: suspension in saline, higher = longer survival",113 % of control
same,T/C,"endpoint: median survival time, dose: 43.2 mg/kg/injection, schedule: Q04DX002 (ip), vehicle: suspension in saline, higher = longer survival",122 % of control
same,T/C,"endpoint: median survival time, dose: 72.0 mg/kg/injection, schedule: Q04DX002 (ip), vehicle: suspension in saline, higher = longer survival",114 % of control
same,T/C,"endpoint: median survival time, dose: 200.0 mg/kg/injection, schedule: Q04DX002 (ip), vehicle: suspension in saline, higher = longer survival",119 % of control
same,T/C,"endpoint: median tumor weight (est.), dose: 1.0 mg/kg/injection, schedule: Q07DX003 (ip), vehicle: saline, higher = larger tumour",114 % of control
same,T/C,"endpoint: median tumor weight (est.), dose: 2.0 mg/kg/injection, schedule: Q07DX003 (ip), vehicle: saline, higher = larger tumour",71 % of control and 79 % of control
same,T/C,"endpoint: median tumor weight (est.), dose: 4.0 mg/kg/injection, schedule: Q07DX003 (ip), vehicle: saline, higher = larger tumour",86 % of control
same,T/C,"endpoint: median tumor weight (est.), dose: 8.0 mg/kg/injection, schedule: Q07DX003 (ip), vehicle: saline, higher = larger tumour",156 % of control
same,T/C,"endpoint: median tumor weight (est.), dose: 16.0 mg/kg/injection, schedule: Q07DX003 (ip), vehicle: saline, higher = larger tumour",69 % of control
same,T/C,"endpoint: median tumor weight (est.), dose: 32.0 mg/kg/injection, schedule: Q07DX003 (ip), vehicle: saline, higher = larger tumour",69 % of control
same,T/C,"endpoint: median tumor weight (est.), dose: 64.0 mg/kg/injection, schedule: Q07DX003 (ip), vehicle: saline, higher = larger tumour",78 % of control
